Where two headings read alike, the source gives them in different places.
Tests used:
in vivo = conditions: mouse, po
Protocol: The toxicity of the new compounds according to the invention was determined on mice after oral administration. The chemical names of the reference compounds are as follows: […]

[1] = test system: carrageenin-provoked paw oedema; test: antiphlogistic (oedema-inhibiting) effect, carrageenin paw oedema on rats; type: in vivo; conditions: for ED30: Rattus norvegicus, read-out: ED30 (antiphlogistic effect); for Therapeutical index (antiphlogistic effect): carrageenin paw oedema
Protocol: The antiphlogistic (oedema-inhibiting) effect was tested on rats. 0.1 ml of a 1% carrageenin solution were injected into the plantar region of one of the hind paws. The volume of the paw was measured just before and 3 hours after the introduction of the oedema-provoking agent by a mercury plethysmometer.

narcosis = narcosis potentiating effect on mice, method of Kaergaard; type: in vivo; conditions: for ED50: Mus musculus, read-out: ED50 (narcosis potentiating effect)
Protocol: The narcosis potentiating effect was determined on mice by the method of Kaergaard (Arch. Int. Pharmacodyn. 2, 170/1967/).

acetic acid writhing = test: analgesic effect, acetic acid writhing test on mice; type: in vivo; conditions: for ED50: Mus musculus, read-out: ED50 (analgesic effect); for Therapeutical index (analgesic effect): writhing test
Protocol: The analgesic effect of the new compounds according to the invention was determined on mice by the acetic acid writhing test.

[2] = rats, dosage inhibiting inflammation by 30%, 3 hours after carrageenin
[3] = mice, oral, acetic acid given 1 h after treatment, writhings counted within 5 minutes

CC(=O)Oc1ccccc1C(=O)O [Acetylsalicylic acid, reference compound]
LD50 (in vivo): 1500 mg/kg
ED30 ([1]; 3 h): 180 mg/kg
Therapeutical index (antiphlogistic effect) ([1]; rats): 8.33

CC(=O)N1c2ccccc2-n2cnnc2N1C(C)=O [Example 1, 4,5-diacetyl-4,5-dihydro-s-triazolo-[3,4-c]benzo-as-triazine]
LD50 (in vivo): 1100 mg/kg
ED30 [1, 2]: 110 mg/kg
Therapeutical index (antiphlogistic effect) ([1]; rats): 10
ED50 (narcosis; mice, method of Kaergaard): 75 mg/kg
Therapeutical index (narcosis potentiating effect) (narcosis; mice, method of Kaergaard): 15

CCC(=O)N1c2ccccc2-n2cnnc2N1C(=O)CC [Example 3, 4,5-dipropionyl-4,5-dihydro-s-triazolo[3,4-c]benzo-as-triazine]
LD50 (in vivo): 2000 mg/kg
ED50 (narcosis; mice, method of Kaergaard): 80 mg/kg
Therapeutical index (narcosis potentiating effect) (narcosis; mice, method of Kaergaard): 25
ED50 (acetic acid writhing; [3]): 200 mg/kg
Therapeutical index (analgesic effect) (acetic acid writhing; mice, oral): 10

CCC(=O)N1Nc2nncn2-c2ccccc21 [Example 4, 5-propionyl-4,5-dihydro-s-triazolo[3,4-c]benzo-as-triazine]
LD50 (in vivo): 1750 mg/kg
ED30 [1, 2]: 22 mg/kg
Therapeutical index (antiphlogistic effect) ([1]; rats): 79.55
ED50 (narcosis; mice, method of Kaergaard): 140 mg/kg
Therapeutical index (narcosis potentiating effect) (narcosis; mice, method of Kaergaard): 13
ED50 (acetic acid writhing; [3]): 175 mg/kg
Therapeutical index (analgesic effect) (acetic acid writhing; mice, oral): 10

CCC(=O)N1c2ccccc2-n2c(SC)nnc2N1C(=O)CC [Example 5, 1-methylthio-4,5-dipropionyl-4,5-dihydro-s-triazolo[3,4-c]benzo-as-triazin]
LD50 (in vivo): 1000 mg/kg
ED50 (narcosis; mice, method of Kaergaard): 140 mg/kg
Therapeutical index (narcosis potentiating effect) (narcosis; mice, method of Kaergaard): 7
ED50 (acetic acid writhing; [3]): 100 mg/kg
Therapeutical index (analgesic effect) (acetic acid writhing; mice, oral): 10

CCCc1c(O)n2c3nncn3c3ccccc3n2c1=O [Example 11, 1-oxo-3-hydroxy-2-n-propyl-pyrazolo[1,2-a]-s-triazolo-[3,4-c]benzo-as-triazine]
LD50 (in vivo): 2000 mg/kg

CCCC(C)(COC(N)=O)COC(N)=O [Meprobamate, 2-methyl-2-propyl-1,3-propanediol dicarbamate, reference compound]
LD50 (in vivo): 1100 mg/kg
ED50 (narcosis): 260 mg/kg
Therapeutical index (narcosis potentiating effect) (narcosis; mice, method of Kaergaard): 4.2

CC(=O)Nc1ccc(O)cc1 [Paracetamol, N-(hydroxyphenyl)acetamide, reference compound]
ED50 (acetic acid writhing; po): 180 mg/kg

CCCCC1C(=O)N(c2ccccc2)N(c2ccccc2)C1=O [Phenylbutazone, 4-butyl-1,2-diphenyl-3,5-pyrazolidinedione, reference compound]
ED30 [1, 2]: 90 mg/kg

Reference: patent US4316022A, “Benzo-as-triazine derivatives” (priority 1979, dated 1982)
